Measured values reported in the NIST ThermoML archive (doi:10.1016/j.jct.2017.07.024).

How the values were obtained:
[1] = refractive index (Na D-line) (dimensionless); wn = mass fraction of the nth substance listed; details: 100 kPa, Liquid, Standard Abbe refractometry
[2] = wn = mass fraction of the nth substance listed; details: for surface tension liquid-gas: Maximal bubble pressure; for mass density: 100 kPa, Liquid, Vibrating tube method

CCCCCn1cc[n+](C)c1.C[C@@H](O)[C@H](N)C(=O)[O-] [1-pentyl-3-methylimidazolium DL-threoninate] + O
Details | mass density, [2] [kg/m3] | refractive index, [1] | surface tension liquid-gas, [2] [mN/m]
288.15 K, w2 = 0.0066 | 1107.18 | 1.5071 | 38.8
288.15 K, w2 = 0.0097 | 1106.95 | 1.5067 | 39
288.15 K, w2 = 0.0119 | 1106.76 | 1.5064 | 39.2
288.15 K, w2 = 0.0141 | 1106.59 | 1.5061 | 39.4
288.15 K, w2 = 0.0165 | 1106.41 | 1.5058 | 39.6
293.15 K, w2 = 0.0066 | 1103.87 | 1.5056 | 38.4
293.15 K, w2 = 0.0097 | 1103.64 | 1.5053 | 38.6
293.15 K, w2 = 0.0119 | 1103.45 | 1.505 | 38.8
293.15 K, w2 = 0.0141 | 1103.28 | 1.5047 | 39
293.15 K, w2 = 0.0165 | 1103.1 | 1.5044 | 39.2
298.15 K, w2 = 0.0066 | 1100.56 | 1.504 | 38.2
298.15 K, w2 = 0.0097 | 1100.33 | 1.5037 | 38.4
298.15 K, w2 = 0.0119 | 1100.14 | 1.5034 | 38.6
298.15 K, w2 = 0.0141 | 1099.97 | 1.5032 | 38.8
298.15 K, w2 = 0.0165 | 1099.79 | 1.5028 | 39
303.15 K, w2 = 0.0066 | 1097.21 | 1.5024 | 37.8
303.15 K, w2 = 0.0097 | 1096.98 | 1.5021 | 38.1
303.15 K, w2 = 0.0119 | 1096.79 | 1.5017 | 38.3
303.15 K, w2 = 0.0141 | 1096.61 | 1.5015 | 38.5
303.15 K, w2 = 0.0165 | 1096.42 | 1.5012 | 38.7
308.15 K, w2 = 0.0066 | 1093.89 | 1.5009 | 37.5
308.15 K, w2 = 0.0097 | 1093.66 | 1.5006 | 37.8
308.15 K, w2 = 0.0119 | 1093.46 | 1.5003 | 38
308.15 K, w2 = 0.0141 | 1093.29 | 1.5 | 38.2
308.15 K, w2 = 0.0165 | 1093.09 | 1.4997 | 38.4
313.15 K, w2 = 0.0066 | 1090.6 | 1.4992 | 37.2
313.15 K, w2 = 0.0097 | 1090.36 | 1.4988 | 37.5
313.15 K, w2 = 0.0119 | 1090.16 | 1.4984 | 37.7
313.15 K, w2 = 0.0141 | 1089.98 | 1.4982 | 37.9
313.15 K, w2 = 0.0165 | 1089.78 | 1.4978 | 38.1
318.15 K, w2 = 0.0066 | 1087.14 | 1.4977 | 36.9
318.15 K, w2 = 0.0097 | 1086.89 | 1.4974 | 37.2
318.15 K, w2 = 0.0119 | 1086.69 | 1.497 | 37.4
318.15 K, w2 = 0.0141 | 1086.51 | 1.4967 | 37.6
318.15 K, w2 = 0.0165 | 1086.31 | 1.4963 | 37.9
323.15 K, w2 = 0.0066 | 1083.97 | 1.4961 | 36.6
323.15 K, w2 = 0.0097 | 1083.72 | 1.4957 | 36.9
323.15 K, w2 = 0.0119 | 1083.51 | 1.4954 | 37.1
323.15 K, w2 = 0.0141 | 1083.32 | 1.4951 | 37.3
323.15 K, w2 = 0.0165 | 1083.11 | 1.4947 | 37.6
328.15 K, w2 = 0.0066 | 1080.67 | 1.4945 | 36.3
328.15 K, w2 = 0.0097 | 1080.42 | 1.4941 | 36.6
328.15 K, w2 = 0.0119 | 1080.21 | 1.4937 | 36.8
328.15 K, w2 = 0.0141 | 1080.02 | 1.4934 | 37
328.15 K, w2 = 0.0165 | 1079.81 | 1.4931 | 37.3
